Experimental data reported in PubChem BioAssay (NCI).
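Each compound was tested at five concentrations against cells in 96-well plates for 48 hours. TGI marks complete inhibition of growth.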

Columns and labels:
Test in all cases: NCI-60 cell line screen, 48 h
[1] = test system: HOP-92 NSCLC
[2] = test system: OVCAR-5 ovarian
[3] = test system: OVCAR-3 ovarian
[4] = test system: IGROV1 ovarian
[5] = test system: LOX IMVI melanoma
[6] = test system: SF-295 CNS
[7] = test system: HCT-15 colon
[8] = test system: UACC-62 melanoma
[9] = test system: 786-0 renal
[10] = test system: SNB-78 CNS
[11] = test system: SF-539 CNS
[12] = test system: RXF 393 renal
[13] = test system: ACHN renal
[14] = test system: CAKI-1 renal
[15] = test system: HOP-62 NSCLC
[16] = test system: HOP-18 NSCLC
[17] = test system: SNB-19 CNS
[18] = test system: SK-MEL-28 melanoma
[19] = test system: DLD-1 colon
[20] = test system: TK-10 renal
[21] = test system: SK-MEL-5 melanoma
[22] = test system: KM20L2 colon
[23] = test system: SW-620 colon
[24] = test system: NCI-H460 lung
[25] = test system: XF 498 CNS
[26] = test system: MALME-3M melanoma
[27] = test system: A498 renal
[28] = test system: OVCAR-8 ovarian
[29] = test system: A549 NSCLC
[30] = test system: COLO 205 colon
[31] = test system: KM12 colon
[32] = test system: UACC-257 melanoma
[33] = test system: HCT-116 colon
[34] = test system: NCI-H226 lung
[35] = test system: SK-MEL-2 melanoma
[36] = test system: OVCAR-4 ovarian
[37] = test system: DMS 273 small cell lung
[38] = test system: DMS 114 small cell lung
[39] = test system: SN12C renal
[40] = test system: EKVX NSCLC
[41] = test system: NCI-H23 lung
[42] = test system: SF-268 CNS
[43] = test system: U251 CNS
[44] = test system: RPMI-8226 leukemia
[45] = test system: CCRF-CEM leukemia
[46] = test system: K-562 leukemia
[47] = test system: SNB-75 CNS
[48] = test system: SK-OV-3 ovarian
[49] = test system: UO-31 renal
[50] = test system: LXFL 529 NSCLC
[51] = test system: HT29 colon
[52] = test system: MOLT-4 leukemia
[53] = test system: M14 melanoma
[54] = test system: HL-60(TB) leukemia
[55] = test system: NCI-H522 lung
[56] = test system: M19-MEL melanoma
[57] = test system: SR leukemia
[58] = test system: HCC-2998 colon

Measured: TGI

CCCCCC(=O)OCCOCCOCCOCCOCCOCc1ccccc1
not listed: [44] | [45] | [46] | [47] | [48] | [49] | [50] | [51] | [52] | [53] | [54] | [55] | [56] | [57] | [58]
> 100 µM: all other assays above

CC(NS(=O)(=O)c1ccc(Cl)cc1)C(=O)O (centres undefined)
not listed: [10] | [15] | [33] | [34] | [38] | [57] | [58]
> 100 µM: all other assays above

COc1ccc2c3c([nH]c2c1CC=C(C)C)C(=O)C=C(C)C3=O
not listed: [5] | [10] | [27]
> 25 µM: all other assays above
